In this assay the target is T1, CXCR7 (Homo sapiens, UniProt P25106).
T1 construct: host or cells: CHO-K1 (PathHunter CHO-K1 CXCR7 b-arrestin cell line, stably transfected)
T1 sequence (P25106 whole entry): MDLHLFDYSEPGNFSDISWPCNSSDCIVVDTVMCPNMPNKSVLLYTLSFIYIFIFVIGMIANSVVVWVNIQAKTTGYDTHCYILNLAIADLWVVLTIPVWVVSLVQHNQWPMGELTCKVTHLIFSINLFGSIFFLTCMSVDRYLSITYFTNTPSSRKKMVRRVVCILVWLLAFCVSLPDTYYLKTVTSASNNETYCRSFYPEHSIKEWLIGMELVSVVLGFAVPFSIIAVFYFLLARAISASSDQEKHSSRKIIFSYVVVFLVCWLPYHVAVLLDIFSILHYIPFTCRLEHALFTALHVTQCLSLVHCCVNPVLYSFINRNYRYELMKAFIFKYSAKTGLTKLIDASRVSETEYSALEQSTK
T1 sequence (P32121 whole entry partner): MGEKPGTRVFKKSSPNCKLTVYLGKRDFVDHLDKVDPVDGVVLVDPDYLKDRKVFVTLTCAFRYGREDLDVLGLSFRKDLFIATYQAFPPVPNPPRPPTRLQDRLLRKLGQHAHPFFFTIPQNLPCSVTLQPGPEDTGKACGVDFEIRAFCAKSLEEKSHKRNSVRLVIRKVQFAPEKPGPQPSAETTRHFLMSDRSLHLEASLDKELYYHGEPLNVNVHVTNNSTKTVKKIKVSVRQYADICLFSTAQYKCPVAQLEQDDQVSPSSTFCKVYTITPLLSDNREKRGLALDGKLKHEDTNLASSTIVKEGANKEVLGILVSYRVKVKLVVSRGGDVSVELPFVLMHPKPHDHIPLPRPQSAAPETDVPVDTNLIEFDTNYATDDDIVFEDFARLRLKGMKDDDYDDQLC
Kind of assay: PathHunter CHO-K1 CXCR7 b-arrestin recruitment assay (CXCR7 agonistic activity). Format: cell-based. The settings on record: PathHunter CHO-K1 CXCR7 b-arrestin cell line. Put shortly: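 Stable CHO-K1 line with C-terminally ProLink-tagged CXCR7 and β-arrestin 2–EA fusion; β-arrestin recruitment restores β-gal activity, read by chemiluminescence after 1 h RT detection. Cells seeded 24 h, starved in OPTIMEM 3–4 h, exposed to compounds 90 min at 37 °C in HBSS/HEPES/BSA. Geometric-mean EC50 from repeated measurements.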
As usually defined, the EC50 is the concentration needed to bring the measured effect to its halfway point. Read a high EC50 as a less potent agent. Compound `CN(CCN(Cc1ccccc1Br)C(=O)CNc1cccc2c1CCN(CC1CC1)C2)C(=O)OC(C)(C)C` [Example 235, (2-{(2-Bromo-benzyl)-[2-(2-cyclopropylmethyl-1,2,3,4-tetrahydro-isoquinolin-5-ylamino)-acetyl]-amino}-ethyl)-methyl-carbamic acid tert-butyl ester] registered an EC50 of 107 nM.

Take `COCCN1CCc2c(/C=C/C(=O)N(CCN(C)C)Cc3ncccc3C(F)(F)F)cccc2C1` [Example 318, (E)-N-(2-Dimethylamino-ethyl)-3-[2-(2-methoxy-ethyl)-1,2,3,4-tetrahydro-isoquinolin-5-yl]-N-(3-trifluoromethyl-pyridin-2-ylmethyl)-acrylamide]: the midpoint of the response, the EC50, lay at 7 nM.

Consider `O=C(Cc1cccc2c1CCN(CC1CC1)C2)N(CCN1CCCC1)Cc1ccccc1` [Example 3, N-Benzyl-2-(2-cyclopropylmethyl-1,2,3,4-tetrahydro-isoquinolin-5-yl)-N-(2-pyrrolidin-1-yl-ethyl)-acetamide], for which the half-maximal effective concentration (EC50) amounted to 42 nM.

Consider `CC(C)(O)CN(Cc1ncccc1Br)C(=O)CNc1cccc2c1C(C)(C)CN(CC1CC1)C2` [Example 576, N-(3-Bromo-pyridin-2-ylmethyl)-2-(2-cyclopropylmethyl-4,4-dimethyl-1,2,3,4-tetrahydro-isoquinolin-5-ylamino)-N-(2-hydroxy-2-methyl-propyl)-acetamide], for which the 50% effective concentration (EC50) is 6 nM.

The compound `CCN1CCc2cccc(/C=C/C(=O)N(CCN(C)C)Cc3ccccc3C(F)(F)F)c2C1` [compound 550, (E)-N-(2-Dimethylamino-ethyl)-3-(2-ethyl-1,2,3,4-tetrahydro-isoquinolin-8-yl)-N-(2-trifluoromethyl-benzyl)-acrylamide] had an EC50 of 2 nM.

`CN(C)CCN(Cc1ccccc1)C(=O)CNc1cccc2c1CN(C)CC2` [compound 182] showed an EC50 of 69 nM.

`CCN1CCc2cccc(NCC(=O)N(CCN(C)C)Cc3ccccc3Cl)c2C1` [compound 500, N-(2-Chloro-benzyl)-N-(2-dimethylamino-ethyl)-2-(2-ethyl-1,2,3,4-tetrahydro-isoquinolin-8-ylamino)-acetamide] returned an EC50 of 31 nM.

The compound `CCN1CCc2cccc(NCC(=O)N(CCc3cccc(C(F)(F)F)c3)CCN(C)C)c2C1` [compound 539] showed a concentration giving a half-maximal response (EC50) of 115 nM.

For the compound `CN(C)CCN(Cc1nccs1)C(=O)CNc1cccc2c1CCN(CC1CC1)C2` [Example 265, 2-(2-Cyclopropylmethyl-1,2,3,4-tetrahydro-isoquinolin-5-ylamino)-N-(2-dimethylamino-ethyl)-N-thiazol-2-ylmethyl-acetamide], it took 48 nM to reach a half-maximal effect (EC50).

In the case of `CC(C)CN1CCc2c(cccc2NCC(=O)N(CCN(C)C)Cc2ccccc2)C1` [compound 112, N-Benzyl-N-(2-dimethylamino-ethyl)-2-(2-isobutyl-1,2,3,4-tetrahydro-isoquinolin-5-ylamino)-acetamide], the response was half-maximal at 40 nM (EC50).

For the compound `CNCCN(Cc1ccccc1C(F)(F)F)C(=O)CNc1cccc2c1CCN(C(=O)CC(C)(C)C)C2` [compound 393], the EC50 worked out at 110 nM.

In turn, `C=CCN(C)CCN(Cc1ccccc1C(F)(F)F)C(=O)CNc1cccc2c1CN(CC=C)CC2` [compound 463, N-[2-(Allyl-methyl-amino)-ethyl]-2-(2-allyl-1,2,3,4-tetrahydro-isoquinolin-8-ylamino)-N-(2-trifluoromethyl-benzyl)-acetamide] showed a concentration for a half-maximal effect (EC50) of 16 nM.

Compound `CCC(=O)N1CCc2c(cccc2NCC(=O)N(Cc2ccccc2)Cc2ccccn2)C1` [Example 25, N-Benzyl-2-(2-propionyl-1,2,3,4-tetrahydro-isoquinolin-5-ylamino)-N-pyridin-2-ylmethyl-acetamide] displayed a half-maximal effective concentration (EC50) of 309 nM.

Regarding `CCN1CCc2cccc(NCC(=O)N(CCN(C)C)Cc3ccccc3C(F)(F)F)c2C1` [compound 555, N-(2-Dimethylamino-ethyl)-2-(2-ethyl-1,2,3,4-tetrahydro-isoquinolin-8-ylamino)-N-(2-trifluoromethyl-benzyl)-acetamide], the half-maximal effective concentration (EC50) worked out at 6 nM.

`CCN1CCc2cccc(NCC(=O)N(Cc3ccccc3C(F)(F)F)C3CCN(C)CC3)c2C1` [compound 492, 2-(2-Ethyl-1,2,3,4-tetrahydro-isoquinolin-8-ylamino)-N-(1-methyl-piperidin-4-yl)-N-(2-trifluoromethyl-benzyl)-acetamide] showed an EC50 of 41 nM.

Consider `CNCCN(Cc1ccccc1C(F)(F)F)C(=O)CNc1cccc2c1CC(=O)N(CC(C)C)C2` [compound 383], for which the EC50 is 51 nM.

As to `O=C(CNc1cccc2c1CCN(CC1CC1)C2)N(CCOCc1ccccc1)Cc1ccccc1C(F)(F)F` [Example 82, N-(2-Benzyloxy-ethyl)-2-(2-cyclopropylmethyl-1,2,3,4-tetrahydro-isoquinolin-5-ylamino)-N-(2-trifluoromethyl-benzyl)-acetamide], the EC50 stood at 158 nM.

`CN(C)CCN(Cc1ccccc1)C(=O)CNc1cccc2c1CN(CC1CC1)CC2` [compound 187, N-Benzyl-2-(2-cyclopropylmethyl-1,2,3,4-tetrahydro-isoquinolin-8-ylamino)-N-(2-dimethylamino-ethyl)-acetamide] returned an EC50 of 34 nM.

For the compound `CC(C)(C)OC(=O)N1CCc2c(/C=C/C(=O)N(Cc3ccccc3)C3CCS(=O)(=O)C3)cccc2C1` (centres unmarked) [Example 95, 5-{(E)-2-[Benzyl-(1,1-dioxo-tetrahydro-1l6-thiophen-3-yl)-carbamoyl]-vinyl}-3,4-dihydro-1H-isoquinoline-2-carboxylic acid tert-butyl ester], it took 432 nM to reach a half-maximal effect (EC50).

For `O=C(CNc1cccc2c1CCN(CC1CC1)C2)N(CCN1CCC(F)(F)C1)Cc1ncccc1C(F)(F)F` [Example 284, 2-(2-Cyclopropylmethyl-1,2,3,4-tetrahydro-isoquinolin-5-ylamino)-N-[2-(3,3-difluoro-pyrrolidin-1-yl)-ethyl]-N-(3-trifluoromethyl-pyridin-2-ylmethyl)-acetamide], the EC50 came to 18 nM.

Consider `CC(C)(O)CN(Cc1ncccc1Br)C(=O)CNc1cccc2c1CN(C1CCC1)CC2` [compound 458], for which the EC50 was determined as 109 nM.

`CC(C)(C)CCN(Cc1ncccc1C(F)(F)F)C(=O)CNc1cccc2c1CCN(CC1CC1)C2` [Example 275, 2-(2-Cyclopropylmethyl-1,2,3,4-tetrahydro-isoquinolin-5-ylamino)-N-(3,3-dimethyl-butyl)-N-(3-trifluoromethyl-pyridin-2-ylmethyl)-acetamide] registered a half-maximal effective concentration (EC50) of 43 nM.

`O=C(CNc1cccc2c1CCN(CC1CC1)C2)N(CCN1CCCC(F)(F)C1)Cc1ccccc1C(F)(F)F` [Example 281, 2-(2-Cyclopropylmethyl-1,2,3,4-tetrahydro-isoquinolin-5-ylamino)-N-[2-(3,3-difluoro-piperidin-1-yl)-ethyl]-N-(2-trifluoromethyl-benzyl)-acetamide] returned an EC50 of 43 nM.

As for `CN(C)CCN(Cc1ccccc1C(F)(F)F)C(=O)Cc1cccc2c1CCN(CC1CC1)C2` [Example 6, 2-(2-Cyclopropylmethyl-1,2,3,4-tetrahydro-isoquinolin-5-yl)-N-(2-dimethylamino-ethyl)-N-(2-trifluoromethyl-benzyl)-acetamide], a half-maximal response (EC50) required 60 nM.

As to `CN(C)CCN(Cc1ccccc1)C(=O)CNc1cccc2c1CCN(C(=O)c1ccccc1)C2` [compound 125], a half-maximal effect (EC50) was put at 240 nM.

In turn, `CN(C)CCN(Cc1ccccc1)C(=O)CNc1cccc2c1C(=O)N(C)CC2` [compound 184] came in with an EC50 of 270 nM.

For the compound `CCN1CCc2cccc(NCC(=O)N(CCN(C)C)C(C)c3ccccc3C(F)(F)F)c2C1` (racemic) [compound 522], the EC50 is 140 nM.

Turning to `COCCN1CCc2c(CCC(=O)N(CCN(C)C)Cc3ncccc3C(F)(F)F)cccc2C1` [Example 336, N-(2-Dimethylamino-ethyl)-3-[2-(2-methoxy-ethyl)-1,2,3,4-tetrahydro-isoquinolin-5-yl]-N-(3-trifluoromethyl-pyridin-2-ylmethyl)-propionamide], the half-maximal effective concentration (EC50) was 47 nM.

`CC1c2cccc(NCC(=O)N(CCN(C)C)Cc3ccccc3C(F)(F)F)c2CCN1CC1CC1` (single isomer, unassigned) [Example 211a, (S)- or (R)-2-((2-(Cyclopropylmethyl)-1-methyl-1,2,3,4-tetrahydroisoquinolin-5-yl)amino)-N-(2-(dimethylamino)ethyl)-N-(2-(trifluoromethyl)benzyl)acetamide] came in with an EC50 of 1 nM.

In turn, `COCCN1CCc2c(/C=C/C(=O)N(CCN3CCC(F)(F)CC3)Cc3ncccc3C(F)(F)F)cccc2C1` [Example 322, (E)-N-[2-(4,4-Difluoro-piperidin-1-yl)-ethyl]-3-[2-(2-methoxy-ethyl)-1,2,3,4-tetrahydro-isoquinolin-5-yl]-N-(3-trifluoromethyl-pyridin-2-ylmethyl)-acrylamide] yielded a concentration for a half-maximal effect (EC50) of 119 nM.

Regarding `CCN1CCc2cccc(NCC(=O)N(CCN(C)C)Cc3ccc(F)cn3)c2C1` [compound 529], the EC50 was 174 nM.

As to `O=C(CNc1cccc2c1CCN(CC1CC1)C2)N(Cc1ccccc1C(F)(F)F)C1CCNC1` (racemic) [compound 381], the EC50 was found to be 9 nM.

Regarding `CN(C)CCN(Cc1ccccc1)C(=O)CNc1cccc2c1CCN(CC1CCCCC1)C2` [compound 124], the concentration for a half-maximal effect (EC50) was found to be 52 nM.

With `CN(C)CCN(CCc1ccc(C(F)(F)F)cc1)C(=O)CNc1cccc2c1CCN(CC1CC1)C2` [Example 56, 2-(2-Cyclopropylmethyl-1,2,3,4-tetrahydro-isoquinolin-5-ylamino)-N-(2-dimethylamino-ethyl)-N-[2-(4-trifluoromethyl-phenyl)-ethyl]-acetamide], a half-maximal response (EC50) required 70 nM.

`CN(C)CCN(Cc1ncccc1C(F)(F)F)C(=O)CNc1cccc2c1CCN(CC1CC1)C2` [Example 47, 2-(2-Cyclopropylmethyl-1,2,3,4-tetrahydro-isoquinolin-5-ylamino)-N-(2-dimethylamino-ethyl)-N-(3-trifluoromethyl-pyridin-2-ylmethyl)-acetamide] displayed a 50% effective concentration (EC50) of 2 nM.

These data come from patent US9920010B2, “CXCR7 receptor modulators” (IDORSIA PHARMACEUTICALS LTD, priority 2013, dated 2018).
